Earlier results, collected in PMC11272821, “Mechanistic safety assessment via multi-omic characterisation of systemic pathway perturbations following in vivo MAT2A inhibition” (Archives of Toxicology, 2024).

Set-up: method as in Agios Pharmaceuticals, AACR-NCI-EORTC 2019
Details: ref Agios Pharmaceuticals, AACR-NCI-EORTC 2019, cited from earlier work

COc1ccc(-c2c(Nc3ccccn3)[nH]c3c(C4=CCCCC4)c(-c4ccccc4)nn3c2=O)cc1 [AG-270]
adverse finding in Phase 1 clinical trial (proposed result of UGT1A1 inhibition): hyperbilirubinemia | dose limiting toxicity in Phase 1 clinical trial: reversible, acute liver injury
